In the supplement of paper PMC9103864:

Legend:
[1] = tested on: BMSC (primary human bone marrow mesenchymal stromal cells); assay: absolute EC50 for viability; higher = less sensitive
[2] = tested on: BMSC (primary human bone marrow mesenchymal stromal cells); assay: drug sensitivity score (DSS); higher = more sensitive

Structure (SMILES)	absolute EC50 for viability [1]	drug sensitivity score [2]
O=C(O)c1ccc(O)c2ncccc12 [IOX-1]	> 100000 nM	0.6
O=C(CCCCCCC(=O)Nc1ccccc1)NO [Vorinostat]	2940 nM	5.6
NS(=O)(=O)OC[C@@H]1C[C@@H](n2ccc3c(N[C@H]4CCc5ccccc54)ncnc32)C[C@@H]1O [Pevonedistat]	> 10000 nM	5.4
CC1(C)CNc2cc(NC(=O)c3cccnc3NCc3ccncc3)ccc21 [Motesanib]	> 10000 nM	0
Cn1c(Nc2ccc(C(F)(F)F)cc2)nc2cc(Oc3ccnc(-c4ncc(C(F)(F)F)[nH]4)c3)ccc21 [RAF-265]	> 1000 nM	2.5
COc1cc2c(cc1-c1c(C)noc1C)ncc1[nH]c(=O)n([C@H](C)c3ccccn3)c12 [I-BET151]	> 10000 nM	3.5
CC(C)(C)c1cnc(CSc2cnc(NC(=O)C3CCNCC3)s2)o1 [SNS-032]	> 10000 nM	12.8
CCCCCCCCCCCCCCCCOP(=O)([O-])OCC[N+](C)(C)C [Miltefosine]	78200 nM	2.7
CNS(=O)(=O)Nc1nccc(Cc2c(C)c3ccc(Oc4ncccn4)cc3oc2=O)c1F	> 1000 nM	0
COc1ccc(-c2ccc3ncc4c(c3c2)n(-c2ccc(N3CCNCC3)c(C(F)(F)F)c2)c(=O)n4C)cn1 [NVP-BGT226]	26.3 nM	17.5
O=C(Nc1cc(Oc2cc(F)c(NC(=O)C3(C(=O)Nc4ccc(F)cc4)CC3)cc2F)ccn1)C1CC1 [Altiratinib]	> 10000 nM	2.9
CN1CCC(COc2cnc(-c3cccc(Cn4nc(-c5cccc(C#N)c5)ccc4=O)c3)nc2)CC1 [Tepotinib]	> 1000 nM	0.3
COC(=O)c1ccc([C@H]2c3[nH]c4ccccc4c3C[C@H](C(=O)OC)N2C(=O)CCl)cc1 [RSL3]	> 10000 nM	0
C[C@@H]1COCCN1c1cc(C2([S@](C)(=N)=O)CC2)nc(-c2cc[nH]c3nccc2-3)n1 [AZD6738]	> 25000 nM	4.6
C[C@]12CC[C@H](O)CC1=CC[C@@H]1[C@@H]2CC[C@]2(C)C(c3cccnc3)=CC[C@@H]12 [Abiraterone]	> 5000 nM	0
CC(=O)Nc1ccc(C(=O)Nc2ccccc2N)cc1 [Tacedinaline]	> 1000 nM	0
C1=N/C2=N/c3ccc(OCCN4CCCC4)c(c3)COC/C=C/COCc3cccc(c3)C(=C1)N2 [Pacritinib]	3670 nM	4.7
S=c1[nH]cnc2nc[nH]c12 [Mercaptopurine]	> 10000 nM	11.1
CC[C@@H]1CN(C(=O)NCC(F)(F)F)C[C@@H]1c1cnc2cnc3[nH]ccc3n12 [Upadacitinib]	> 10000 nM	1.1
CC(C)[C@H]1C(=O)N[C@@H](CCCNC(=N)N)C(=O)NCC(=O)N[C@@H](CC(=O)O)C(=O)N[C@H](Cc2ccccc2)C(=O)N1C [Cilengitide]	> 10000 nM	1.4
COc1ccc2[nH]cc(/C=C3\C(=O)Nc4ccc(NC(=O)CCN5CCCCC5)cc43)c2c1	7380 nM	9.6

Structure (SMILES)	absolute EC50 for viability [1]	drug sensitivity score [2]
CC(C)C[C@H](NC(=O)[C@H](Cc1ccccc1)NC(=O)c1cnccn1)B(O)O [Bortezomib]	50.7 nM	14.5
COc1cccc2c1C(=O)c1c(O)c3c(c(O)c1C2=O)C[C@@](O)(C(C)=O)C[C@@H]3O[C@H]1C[C@H](N)[C@H](O)[C@H](C)O1 [Daunorubicin]	356 nM	5.6
COc1cc(Nc2ncc(F)c(Nc3ccc4c(n3)N(COP(=O)(O)O)C(=O)C(C)(C)O4)n2)cc(OC)c1OC [Fostamatinib]	> 2500 nM	5.2
COc1cc(C)c(/C=C/C(C)=C/C=C/C(C)=C/C(=O)O)c(C)c1C [Acitretin]	> 10000 nM	0
CCc1c(C(=O)C(N)=O)c2c(OCC(=O)O)cccc2n1Cc1ccccc1 [Varespladib]	> 10000 nM	0
COC(=O)N[C@@H](C)CNc1nccc(-c2cn(C(C)C)nc2-c2cc(Cl)cc(NS(C)(=O)=O)c2F)n1 [Encorafenib]	> 1000 nM	0
CCC1=C[C@@H]2CN(C1)Cc1c([nH]c3ccccc13)[C@@](C(=O)OC)(c1cc3c(cc1OC)N(C)[C@H]1[C@@](O)(C(=O)OC)[C@H](OC(C)=O)[C@]4(CC)C=CCN5CC[C@]31[C@@H]54)C2 [Vinorelbine]	1120 nM	16.5
CC(C)(C)C[C@@H]1N[C@@H](C(=O)N[C@H]2CC[C@H](O)CC2)[C@H](c2cccc(Cl)c2F)[C@]12C(=O)Nc1cc(Cl)ccc12	2490 nM	10.5
O=C(CCNC(=O)c1ccc(OC(F)(F)F)cc1)N[C@@H]1CCCc2ccccc21 [ML390]	> 50000 nM	0.3
CC(C)Oc1ccc(-c2nn([C@@H](C)c3oc4ccc(F)cc4c(=O)c3-c3cccc(F)c3)c3ncnc(N)c23)cc1F [TGR-1202]	> 2500 nM	0
Nc1nc2[nH]cc(CCc3ccc(C(=O)N[C@@H](CCC(=O)O)C(=O)O)cc3)c2c(=O)[nH]1 [Pemetrexed]	> 10000 nM	0.7
COc1cc2c(Oc3ccc4[nH]c(C)cc4c3F)ncnc2cc1OCCCN1CCCC1 [Cediranib]	> 1000 nM	2.5
CC(C)C[C@H](NC(=O)CNC(=O)c1cc(Cl)ccc1Cl)B(O)O [Ixazomib]	> 1000 nM	0.4
CC#CC(=O)N1CCC[C@H]1c1nc(-c2ccc(C(=O)Nc3ccccn3)cc2)c2c(N)nccn12 [Acalabrutinib]	> 1000 nM	0
CCCCOc1nc(N)c2c(n1)N(Cc1cccc(CN3CCCC3)c1)CC(=O)N2 [Vesatolimod]	> 10000 nM	0
C[C@]1(O)C[C@@H](c2nc(-c3ccc4ccc(-c5ccccc5)nc4c3)c3c(N)nccn32)C1 [Linsitinib]	> 10000 nM	2.9
CCCCc1nc2cc(/C=C/C(=O)NO)ccc2n1CCN(CC)CC [Pracinostat]	1560 nM	8.8
CO[C@H]1C[C@@H]2CC[C@@H](C)[C@@](O)(O2)C(=O)C(=O)N2CCCC[C@H]2C(=O)O[C@H]([C@H](C)C[C@@H]2CC[C@@H](OC(=O)C(C)(CO)CO)[C@H](OC)C2)CC(=O)[C@H](C)/C=C(\C)[C@@H](O)[C@@H](OC)C(=O)[C@H](C)C[C@H](C)/C=C/C=C/C=C/1C [Temsirolimus]	> 100 nM	7.4
CC(C)C(=O)Nc1ccc([N+](=O)[O-])c(C(F)(F)F)c1 [Flutamide]	> 10000 nM	0
O=C(Nc1c[nH]nc1-c1nc2ccc(CN3CCOCC3)cc2[nH]1)NC1CC1 [AT9283]	254 nM	6
